The source of these data is PubChem BioAssay (NCI).

Some test systems named below: U251 CNS; NCI-H23 lung; RXF 393 renal; IGROV1 ovarian; CCRF-CEM leukemia; 786-0 renal; NCI-H522 lung; DMS 273 small cell lung; SNB-78 CNS.
Assay in all cases: NCI tumour cell line growth inhibition, 48 h

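Method: 48-hour compound exposure of cells in 96-well plates, five concentrations, linear interpolation of endpoints. Here, GI50 denotes the concentration required for 50% inhibition of growth. TGI marks complete inhibition of growth.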

With `CCOC(=O)Nc1nc2c(C)cccc2s1`, the GI50 in the assay on U251 CNS was 77.5 µM; in the assay with NCI-H23 lung, 38.8 µM; in the assay on RXF 393 renal, more than 100 µM; in the assay on IGROV1 ovarian, 46 µM; in the assay on CCRF-CEM leukemia, 54.8 µM; in the assay with 786-0 renal, more than 100 µM. In the assay on NCI-H522 lung, the GI50 is 47.8 µM. Moreover, the TGI with U251 CNS, in the assay on NCI-H23 lung, in the assay on RXF 393 renal, in the assay on IGROV1 ovarian, in the assay on CCRF-CEM leukemia and in the assay on 786-0 renal was more than 100 µM in each case. This molecule also had a TGI in the assay with NCI-H522 lung of more than 100 µM.

In the case of `O=c1c2ccccc2nc(-c2cccc(Cl)c2)n1NCC1(O)OCC(O)C(O)C1O` (stereo unspecified), the TGI in the assay with U251 CNS, in the assay on NCI-H23 lung, in the assay with RXF 393 renal, in the assay on CCRF-CEM leukemia, in the assay with 786-0 renal and in the assay on NCI-H522 lung was more than 100 µM throughout. Further, the TGI with DMS 273 small cell lung and with SNB-78 CNS was more than 100 µM in each case.

Regarding `C=CC1=C(C)C2=NC1=CC1=NC(=CC3=C(C)C4=C(O)C(C(=O)OC)C(=C5NC(=C2)C(C)C5CCC(=O)OC)C4=N3)C(CC)=C1C` (stereo unspecified), the TGI with U251 CNS, with NCI-H23 lung, with RXF 393 renal, with IGROV1 ovarian, in the assay on CCRF-CEM leukemia and in the assay on 786-0 renal was more than 100 µM throughout. This molecule also returned a TGI in the assay on NCI-H522 lung of more than 100 µM.

Consider `CCOC(=O)c1cc(C(=O)c2cc(OC)c(OC)c(OC)c2)n2ccccc12`, for which the GI50 was 0.0899 µM in the assay on U251 CNS; 0.34 µM with NCI-H23 lung; 0.07 µM in the assay on RXF 393 renal; 2.96 µM with IGROV1 ovarian; 0.106 µM in the assay with CCRF-CEM leukemia; 0.739 µM with 786-0 renal. In addition, the GI50 in the assay with NCI-H522 lung was 0.0577 µM. Also, the TGI is 38.6 µM with U251 CNS; more than 100 µM in the assay with NCI-H23 lung; 0.707 µM in the assay on RXF 393 renal; more than 100 µM in the assay with IGROV1 ovarian; more than 100 µM with CCRF-CEM leukemia; more than 42.7 µM in the assay with 786-0 renal. In the assay on NCI-H522 lung, the TGI is more than 37.1 µM.

On to `COc1ccccc1/C=C/C(=O)/C=C/c1ccccc1OC`, for which the GI50 is 1.55 µM in the assay with U251 CNS; 1.75 µM in the assay on NCI-H23 lung; 1.6 µM in the assay on RXF 393 renal; 1.6 µM with IGROV1 ovarian; 2.04 µM with CCRF-CEM leukemia; 1.85 µM with 786-0 renal. Further, the GI50 in the assay with NCI-H522 lung is 1.67 µM. Also, the TGI in the assay with U251 CNS was determined as 3.24 µM; with NCI-H23 lung, 3.92 µM; in the assay with RXF 393 renal, 3.06 µM; in the assay on IGROV1 ovarian, 3.2 µM; with CCRF-CEM leukemia, 9.19 µM; in the assay with 786-0 renal, 3.59 µM. This molecule registered a TGI in the assay with NCI-H522 lung of 3.26 µM.

Consider `COc1ccc(N(/C=C/C(=O)C(F)(F)F)CC(=O)c2ccc(Cl)c(Cl)c2)cc1`, for which the GI50 is 12.2 µM in the assay on U251 CNS; 17.5 µM with NCI-H23 lung; 36.3 µM with RXF 393 renal; 22.8 µM in the assay on IGROV1 ovarian; 3.39 µM in the assay with CCRF-CEM leukemia; 15.5 µM in the assay with 786-0 renal. Also, the GI50 in the assay on NCI-H522 lung was 19.4 µM. Moreover, the TGI with U251 CNS was 25.3 µM; in the assay on NCI-H23 lung, 32.3 µM; with RXF 393 renal, more than 100 µM; in the assay with IGROV1 ovarian, 60.9 µM; in the assay on CCRF-CEM leukemia it was 18.3 µM; with 786-0 renal it was 29.5 µM. Besides, in the assay on NCI-H522 lung, the TGI is 43.7 µM.

In the case of `COc1cc(OC)c(C(=O)/C=C/c2cccc(OC(C)=O)c2)cc1CC=C(C)C`, the GI50 was 6.91 µM with U251 CNS; 8.05 µM in the assay with NCI-H23 lung; 10.2 µM in the assay on RXF 393 renal; 15.9 µM in the assay with IGROV1 ovarian; 7 µM in the assay with CCRF-CEM leukemia; 9.85 µM in the assay with 786-0 renal. Also, the GI50 with NCI-H522 lung was 8.76 µM. The TGI was 14.7 µM with U251 CNS; 18.5 µM with NCI-H23 lung; 32.3 µM in the assay on RXF 393 renal; more than 50 µM with IGROV1 ovarian; 31 µM in the assay with CCRF-CEM leukemia; 19.8 µM in the assay on 786-0 renal. The molecule also had a TGI in the assay on NCI-H522 lung of 22.2 µM.

On to `O=C(COc1cccc(/C=C2\CSc3ccccc3C2=O)c1)c1ccc(Cl)cc1`, for which the GI50 was 1.42 µM with U251 CNS; 1.92 µM with NCI-H23 lung; 2.67 µM in the assay with RXF 393 renal; 2.02 µM with IGROV1 ovarian; 0.325 µM in the assay with CCRF-CEM leukemia; 1.4 µM with 786-0 renal. Besides, the GI50 in the assay with NCI-H522 lung is 1.61 µM. Besides, the TGI came out at 2.72 µM in the assay on U251 CNS; 4.15 µM in the assay on NCI-H23 lung; 6.73 µM in the assay on RXF 393 renal; 4.26 µM in the assay with IGROV1 ovarian; 2.89 µM in the assay with 786-0 renal; 3.67 µM in the assay with NCI-H522 lung.

Turning to `CCNCCCn1c2c(c3ccc([N+](=O)[O-])cc3c1=O)C(=O)c1cc(OC)cnc1-2`, the GI50 in the assay on U251 CNS was 0.0329 µM; in the assay with NCI-H23 lung, 0.0436 µM; in the assay on RXF 393 renal, 0.136 µM; in the assay with IGROV1 ovarian, 0.184 µM; in the assay with CCRF-CEM leukemia, 0.0366 µM; with 786-0 renal, 0.0406 µM. In the assay with NCI-H522 lung, the GI50 was 0.0361 µM. In addition, the TGI was found to be 0.186 µM in the assay with U251 CNS; 0.323 µM in the assay on NCI-H23 lung; 0.464 µM with RXF 393 renal; 1.45 µM in the assay on IGROV1 ovarian; 1.23 µM in the assay on CCRF-CEM leukemia; 0.31 µM in the assay with 786-0 renal. For the same molecule, in the assay on NCI-H522 lung, the TGI amounted to 0.898 µM.

As for `C[C@H](N)C(=O)N1C[C@H](CCCB(O)O)[C@](N)(C(=O)O)C1`, the GI50 in the assay with U251 CNS, with NCI-H23 lung, with RXF 393 renal, with IGROV1 ovarian, in the assay on CCRF-CEM leukemia and with 786-0 renal was more than 100 µM throughout. Besides, the GI50 in the assay with NCI-H522 lung was more than 100 µM. Besides, the TGI in the assay on U251 CNS, in the assay with NCI-H23 lung, in the assay on RXF 393 renal, in the assay on IGROV1 ovarian, in the assay on CCRF-CEM leukemia and in the assay with 786-0 renal was more than 100 µM in each case. The molecule further displayed a TGI in the assay with NCI-H522 lung of more than 100 µM.
